The NIST ThermoML archive (doi:10.1021/je101191e)
Numbers after ± are expanded uncertainties.

Key:
[1] = 298.15 K; 101.33 kPa; Liquid; Pycnometric method
[2] = xn = mol fraction of the nth substance listed; conditions: 298.15 K, 101.3 kPa, Liquid; for viscosity: Concentric cylinders viscometry; for mass density: Pycnometric method

CCCCCCCC(=O)O [octanoic acid]
Conditions	mass density [kg/m3]
[1]	910 ± 3.7

O [water] + CCCCCCC(=O)[O-].CC[NH+](C(C)C)C(C)C
Conditions	viscosity [mPa·s]
[2], x2 = 0	0.891 ± 0.054

O [water] + CCCCCCCC(=O)[O-].CC[NH+](C(C)C)C(C)C
Conditions	viscosity [mPa·s]
[2], x2 = 0	0.891 ± 0.054

CC#N [acetonitrile] + CCCCCCCC(=O)[O-].CC[NH+](C(C)C)C(C)C
[2], x2 = 0
Conditions	mass density [kg/m3]	viscosity [mPa·s]
–	768.6 ± 3.1	0.335 ± 0.021

CCCCCCC(=O)[O-].CC[NH+](C(C)C)C(C)C [N-ethyl-N-isopropylpropan-2-aminium heptanoate] + CC#N
[2]
Conditions	mass density [kg/m3]	viscosity [mPa·s]
x1 = 0.1	–	1.09 ± 0.066
x1 = 0.1016	820.6 ± 3.3	–
x1 = 0.2	–	1.826 ± 0.11
x1 = 0.2003	840.8 ± 3.4	–
x1 = 0.3	–	2.51 ± 0.15
x1 = 0.3046	849.7 ± 3.5	–
x1 = 0.4	–	3.875 ± 0.24
x1 = 0.402	853.8 ± 3.5	–
x1 = 0.5	–	5.158 ± 0.31
x1 = 0.5021	857.1 ± 3.5	–
x1 = 0.6	–	7.013 ± 0.43
x1 = 0.6083	859.8 ± 3.6	–
x1 = 0.7	–	9 ± 0.55
x1 = 0.705	862.3 ± 3.6	–
x1 = 0.8	–	11.6 ± 0.71
x1 = 0.8013	863.9 ± 3.6	–
x1 = 0.9	–	13.5 ± 0.83
x1 = 0.9013	865.4 ± 3.7	–
x1 = 1	866.5 ± 3.8	12.23 ± 0.76

CCCCCCC(=O)O [heptanoic acid]
Conditions	mass density [kg/m3]
[1]	918 ± 3.8

CCN(C(C)C)C(C)C [N-ethyl-N-(1-methylethyl)-1-methylethanamine]
Conditions	mass density [kg/m3]
[1]	742 ± 3

CCCCCCCC(=O)[O-].CC[NH+](C(C)C)C(C)C [N-ethyl-N-isopropylpropan-2-aminium octanoate] + O
[2]
Conditions	mass density [kg/m3]	viscosity [mPa·s]
x1 = 0.0948	955.1 ± 3.8	–
x1 = 0.1	–	36.61 ± 2.2
x1 = 0.193	927.3 ± 3.7	–
x1 = 0.2	–	52.36 ± 3.1
x1 = 0.2908	905.7 ± 3.7	–
x1 = 0.3	–	42.39 ± 2.6
x1 = 0.3981	890.6 ± 3.6	–
x1 = 0.4	–	32.19 ± 1.9
x1 = 0.5	–	27.62 ± 1.7
x1 = 0.505	877.4 ± 3.6	–
x1 = 0.5846	872.2 ± 3.6	–
x1 = 0.6	–	26.19 ± 1.6
x1 = 0.6749	867.2 ± 3.6	–
x1 = 0.7	–	21.29 ± 1.3
x1 = 0.7994	862.9 ± 3.6	–
x1 = 0.8	–	18.05 ± 1.1
x1 = 0.86	861 ± 3.6	–
x1 = 0.9	–	16.65 ± 1
x1 = 1	858.5 ± 3.7	13.52 ± 0.84

CC#N [acetonitrile] + CCCCCCC(=O)[O-].CC[NH+](C(C)C)C(C)C
[2], x2 = 0
Conditions	mass density [kg/m3]	viscosity [mPa·s]
–	768.6 ± 3.1	0.335 ± 0.021

CCCCCCC(=O)[O-].CC[NH+](C(C)C)C(C)C [N-ethyl-N-isopropylpropan-2-aminium heptanoate] + O
[2]
Conditions	mass density [kg/m3]	viscosity [mPa·s]
x1 = 0.0998	966.3 ± 3.9	–
x1 = 0.1	–	21.99 ± 1.3
x1 = 0.198	936.2 ± 3.8	–
x1 = 0.2	–	43.71 ± 2.6
x1 = 0.299	913.6 ± 3.7	–
x1 = 0.3	–	41.58 ± 2.5
x1 = 0.4	–	31.51 ± 1.9
x1 = 0.4007	900.3 ± 3.6	–
x1 = 0.5	–	26.92 ± 1.6
x1 = 0.5007	889.9 ± 3.6	–
x1 = 0.5941	884 ± 3.6	–
x1 = 0.6	–	23.65 ± 1.4
x1 = 0.6913	877.2 ± 3.6	–
x1 = 0.7	–	22.67 ± 1.4
x1 = 0.7896	872.6 ± 3.6	–
x1 = 0.8	–	18.07 ± 1.1
x1 = 0.9	–	14.44 ± 0.89
x1 = 0.9014	869.5 ± 3.7	–
x1 = 1	866.5 ± 3.8	12.23 ± 0.76

CCCCCCCC(=O)[O-].CC[NH+](C(C)C)C(C)C [N-ethyl-N-isopropylpropan-2-aminium octanoate] + CC#N
[2]
Conditions	mass density [kg/m3]	viscosity [mPa·s]
x1 = 0.0948	815.2 ± 3.3	–
x1 = 0.1	–	1.291 ± 0.078
x1 = 0.193	834.3 ± 3.4	–
x1 = 0.2	–	1.947 ± 0.12
x1 = 0.2908	842.2 ± 3.4	–
x1 = 0.3	–	2.865 ± 0.17
x1 = 0.3981	847.3 ± 3.5	–
x1 = 0.4	–	4.921 ± 0.3
x1 = 0.5	–	6.897 ± 0.42
x1 = 0.505	850 ± 3.5	–
x1 = 0.5846	852 ± 3.5	–
x1 = 0.6	–	8.725 ± 0.53
x1 = 0.6749	853.3 ± 3.5	–
x1 = 0.7	–	11 ± 0.67
x1 = 0.7994	855.8 ± 3.6	–
x1 = 0.8	–	13.31 ± 0.82
x1 = 0.86	856.5 ± 3.6	–
x1 = 0.9	–	14.82 ± 0.91
x1 = 1	858.5 ± 3.7	13.52 ± 0.84
